The values below come from US9125913B2, “Bcl-2-selective apoptosis-inducing agents for the treatment of cancer and immune diseases” (AbbVie Inc., priority 2008, dated 2015).

The assay relates to GST-Bcl-2. The experiment in a line: TR-FRET binding assay, Bcl-2. To be noted: TR-FRET Ki values. In outline: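 Compounds serially diluted in DMSO from 50 μM (2× starting concentration, 10% DMSO), mixed with GST-tagged protein, F-Bak peptide probe and Tb-labeled antibody, incubated 3 h at room temperature.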
A general note: Time-resolved FRET reads energy transfer from a long-lived donor to a nearby acceptor.
Regarding `CC1(C)CCC(CN2CCN(c3ccc(C(=O)NS(=O)(=O)c4ccc(N[C@@H]5CCN(Cc6ccccc6)C[C@@H]5O)c([N+](=O)[O-])c4)c(Oc4ccc5[nH]ccc5c4)c3)CC2)=C(c2ccc(Cl)cc2)C1` [EXAMPLE 187, N-[(4-{[(3S,4R)-1-benzyl-3-hydroxypiperidin-4-yl]amino}-3-nitrophenyl)sulfonyl]-4-(4-{[2-(4-chlorophenyl)-4,4-dimethylcyclohex-1-en-1-yl]methyl}piperazin-1-yl)-2-(1H-indol-5-yloxy)benzamide], the “Binding selectivity ratio (Bcl-XL Ki/Bcl-2 Ki)” value (“Binding selectivity ratio” below) is given as more than 2003.9. The figure for `O=C(NS(=O)(=O)c1ccc(NCC2CCOCC2)c([N+](=O)[O-])c1)c1ccc(N2CCN(Cc3cc(OCCN4CCOCC4)ccc3-c3ccc(Cl)cc3)CC2)cc1Oc1ccccc1` [Example 115, 4-(4-{[4′-chloro-4-(2-morpholin-4-ylethoxy)-1,1′-biphenyl-2-yl]methyl}piperazin-1-yl)-N-({3-nitro-4-[(tetrahydro-2H-pyran-4-ylmethyl)amino]phenyl}sulfonyl)-2-phenoxybenzamide] is 156.4. Turning to `CC1(C)CCC(CN2CCN(c3ccc(C(=O)NS(=O)(=O)c4ccc(N[C@H]5CC[C@H](N6CCOCC6)CC5)c([N+](=O)[O-])c4)c(Oc4cccc5[nH]ccc45)c3)CC2)=C(c2ccc(Cl)cc2)C1` [EXAMPLE 204, Trans-4-(4-{[2-(4-chlorophenyl)-4,4-dimethylcyclohex-1-en-1-yl]methyl}piperazin-1-yl)-2-(1H-indol-4-yloxy)-N-({4-[(4-morpholin-4-ylcyclohexyl)amino]-3-nitrophenyl}sulfonyl)benzamide], the “Binding selectivity ratio” value amounted to 291.3.

For `CC1(C)CCC(CN2CCN(c3ccc(C(=O)NS(=O)(=O)c4ccc(NCC5(N)CCOCC5)c([N+](=O)[O-])c4)c(Oc4cccc5[nH]ccc45)c3)CC2)=C(c2ccc(Cl)cc2)C1` [Example 176, N-[(4-{[(4-aminotetrahydro-2H-pyran-4-yl)methyl]amino}-3-nitrophenyl)sulfonyl]-4-(4-{[2-(4-chlorophenyl)-4,4-dimethylcyclohex-1-en-1-yl]methyl}piperazin-1-yl)-2-(1H-indol-4-yloxy)benzamide], the “Binding selectivity ratio” value was determined as 177.8. As to `CC1(C)CCC(CN2CCN(c3ccc(C(=O)NS(=O)(=O)c4ccc(NC5CCN(CCCF)CC5)c([N+](=O)[O-])c4)c(Oc4ccc5[nH]ccc5c4)c3)CC2)=C(c2ccc(Cl)cc2)C1` [EXAMPLE 235, 4-(4-{[2-(4-chlorophenyl)-4,4-dimethylcyclohex-1-en-1-yl]methyl}piperazin-1-yl)-N-[(4-{[1-(3-fluoropropyl)piperidin-4-yl]amino}-3-nitrophenyl)sulfonyl]-2-(1H-indol-5-yloxy)benzamide], the “Binding selectivity ratio” value amounted to 231.4.

Take `CC1(C)CCC(CN2CCN(c3ccc(C(=O)NS(=O)(=O)c4ccc(N[C@H]5CC[C@H](N6CCOCC6)CC5)c([N+](=O)[O-])c4)c(Oc4ccc5[nH]ccc5c4)c3)CC2)=C(c2ccc(Cl)cc2)C1` [Example 178, Trans-4-(4-{[2-(4-chlorophenyl)-4,4-dimethylcyclohex-1-en-1-yl]methyl}piperazin-1-yl)-2-(1H-indol-5-yloxy)-N-({4-[(4-morpholin-4-ylcyclohexyl)amino]-3-nitrophenyl}sulfonyl)benzamide]: the “Binding selectivity ratio” value is more than 2915.8. With `CC1(C)CCC(CN2CCN(c3ccc(C(=O)NS(=O)(=O)c4cnc(OC[C@@H]5CCN(C(CF)CF)C5)c(Cl)c4)c(Oc4cccc5[nH]ncc45)c3)CC2)=C(c2ccc(Cl)cc2)C1` [EXAMPLE 444, N-{[5-chloro-6-({(3R)-1-[2-fluoro-1-(fluoromethyl)ethyl]pyrrolidin-3-yl}methoxy)pyridin-3-yl]sulfonyl}-4-(4-{[2-(4-chlorophenyl)-4,4-dimethylcyclohex-1-en-1-yl]methyl}piperazin-1-yl)-2-(1H-indazol-4-yloxy)benzamide] the figure was 727.625; with `CC1(C)CCC(CN2CCN(c3ccc(C(=O)NS(=O)(=O)c4ccc(NCC5CCOCC5)c(S(=O)(=O)C(F)(F)F)c4)c(Oc4ccc5[nH]ccc5c4)c3)CC2)=C(c2ccc(Cl)cc2)C1` [EXAMPLE 304, 4-(4-{[2-(4-chlorophenyl)-4,4-dimethylcyclohex-1-en-1-yl]methyl}piperazin-1-yl)-2-(1H-indol-5-yloxy)-N-({4-[(tetrahydro-2H-pyran-4-ylmethyl)amino]-3-[(trifluoromethyl)sulfonyl]phenyl}sulfonyl)benzamide], more than 973.5. On to `CC1(C)CCC(c2ccc(Cl)cc2)=C(CN2CCN(c3ccc(C(=O)NS(=O)(=O)c4ccc(NCC5CCOCC5)c([N+](=O)[O-])c4)c(Oc4ccc5[nH]ccc5c4)c3)CC2)C1` [EXAMPLE 290, 4-(4-{[2-(4-chlorophenyl)-5,5-dimethylcyclohex-1-en-1-yl]methyl}piperazin-1-yl)-2-(1H-indol-5-yloxy)-N-({3-nitro-4-[(tetrahydro-2H-pyran-4-ylmethyl)amino]phenyl}sulfonyl)benzamide], for which the “Binding selectivity ratio” value was more than 1808.5. Consider `CN(C)CCCOc1ccc(-c2ccc(Cl)cc2)c(CN2CCN(c3ccc(C(=O)NS(=O)(=O)c4ccc(NCC5CCOCC5)c([N+](=O)[O-])c4)c(Oc4ccccc4)c3)CC2)c1` [Example 116, 4-[4-({4′-chloro-4-[3-(dimethylamino)propoxy]-1,1′-biphenyl-2-yl}methyl)piperazin-1-yl]-N-({3-nitro-4-[(tetrahydro-2H-pyran-4-ylmethyl)amino]phenyl}sulfonyl)-2-phenoxybenzamide], for which the “Binding selectivity ratio” value is 230.7.

Take `COCCN1CCC(Nc2ccc(S(=O)(=O)NC(=O)c3ccc(N4CCN(CC5=C(c6ccc(Cl)cc6)CC(C)(C)CC5)CC4)cc3Oc3ccc4[nH]ccc4c3)cc2[N+](=O)[O-])CC1` [EXAMPLE 189, 4-(4-{[2-(4-chlorophenyl)-4,4-dimethylcyclohex-1-en-1-yl]methyl}piperazin-1-yl)-2-(1H-indol-5-yloxy)-N-[(4-{[1-(2-methoxyethyl)piperidin-4-yl]amino}-3-nitrophenyl)sulfonyl]benzamide]: the “Binding selectivity ratio” value is given as 358.6. As to `CC1(C)CCC(CN2CCN(c3ccc(C(=O)NS(=O)(=O)c4ccc(NCC5(N)CCOCC5)c([N+](=O)[O-])c4)c(Oc4ccc5[nH]ccc5c4)c3)CC2)=C(c2ccc(Cl)cc2)C1` [EXAMPLE 188, N-[(4-{[(4-aminotetrahydro-2H-pyran-4-yl)methyl]amino}-3-nitrophenyl)sulfonyl]-4-(4-{[2-(4-chlorophenyl)-4,4-dimethylcyclohex-1-en-1-yl]methyl}piperazin-1-yl)-2-(1H-indol-5-yloxy)benzamide], the “Binding selectivity ratio” value came to 1135.4. `CC1(C)CCC(CN2CCN(c3ccc(C(=O)NS(=O)(=O)c4ccc(NCC5(F)CCOCC5)c([N+](=O)[O-])c4)c(Oc4cccc5[nH]ncc45)c3)CC2)=C(c2ccc(Cl)cc2)C1` [EXAMPLE 409, 4-(4-{[2-(4-chlorophenyl)-4,4-dimethylcyclohex-1-en-1-yl]methyl}piperazin-1-yl)-N-[(4-{[(4-fluorotetrahydro-2H-pyran-4-yl)methyl]amino}-3-nitrophenyl)sulfonyl]-2-(1H-indazol-4-yloxy)benzamide]: the “Binding selectivity ratio” value turned out to be 1748.5.
